Reference: paper PMC6778861, “Radiosynthesis and Preclinical Evaluation of ^11C-VA426, a Cyclooxygenase-2 Selective Ligand” (Contrast Media & Molecular Imaging, 2019)
Each block holds one compound with its values, some of them ahead of it.

Tests used:
COX-2 [1] = tested on: COX-2; parameters: method as in PMID 18598017; conditions: in vitro; cited from earlier work
[2] = parameters: method as in PMID 18598017; conditions: previous study; cited from earlier work
[3] = In vivo stability / radiometabolite analysis in healthy mice (HPLC); conditions: 10 minutes after injection
Protocol: Mice (n = 3) were injected through the tail vein with 3 ± 0.9 MBq of ^11C-VA426 and sacrificed 10 minutes later, under general anaesthesia. Blood was collected by retro-orbital sampling and processed to obtain plasma, as described above. Radioactive species contained in plasma were extracted by mixing an aliquot (500 μL) of plasma with CH3CN solution (1 : 1 v/v). Acetonitrile extracts were centrifuged and supernatant filtered with a MillexGX® syringe system for HPLC (Gilson Italia Srl, 321 pump, UV/VIS-151) injection. For metabolites analysis in liver, a sample was placed in a tissue homogenizer (Potter-Elvehjem) with 2 mL of saline, mechanically sheared until complete homogenization and subsequently treated as described for plasma. HPLC analyses were performed at room temperature using a C18, 250 × 10 mm, 5 μm column, CH3CN/AcONH4 0.05 M (60/40, v/v) as mobile phase, a flow rate of 4.5 mL/min, and UV = 254 nm. Eluted fractions were collected every 30 seconds, for a total of 14 minutes, and counted with a γ-counter (LKB Compugamma CS 1282).

[4] = Ex vivo biodistribution kinetic profile in healthy mice; parameters: species or system CD-1 mice; conditions: i.v.
Protocol: Male CD-1 mice were injected through the tail vein with 5.3 ± 1.4 MBq of ^11C-VA426 and sacrificed after 10, 30, and 60 minutes (n = 3 per time point) under general anaesthesia with a mixture of 4% isoflurane in air. Blood was collected by retro-orbital sampling immediately before sacrifice. Plasma was separated by centrifugation, and 100 μL of blood and plasma were counted in a γ-counter (LKB Compugamma CS 1282). Different peripheral organs (heart, lung, liver, intestine, stomach, spleen, kidney, testis, and muscle) and brain regions (cortex, striatum, hippocampus, thalamus, hypothalamus, pons, substantia nigra, and cerebellum) were immediately sampled, rinsed with cold saline, and placed in preweighed tubes for counting. Radioactivity concentration was calculated as %ID/g.

COX-2 [5] = target: T1, COX-2 (Rattus norvegicus, UniProt P35355); assay: Specificity (celecoxib competition) study in healthy rats; assay type: in vivo, Sprague Dawley rats; conditions: 30 min p.i.
T1 construct: from tissue; host or cells: peripheral organs and brain regions of Sprague Dawley rats (in vivo / ex vivo biodistribution)
T1 sequence (P35355 18-604): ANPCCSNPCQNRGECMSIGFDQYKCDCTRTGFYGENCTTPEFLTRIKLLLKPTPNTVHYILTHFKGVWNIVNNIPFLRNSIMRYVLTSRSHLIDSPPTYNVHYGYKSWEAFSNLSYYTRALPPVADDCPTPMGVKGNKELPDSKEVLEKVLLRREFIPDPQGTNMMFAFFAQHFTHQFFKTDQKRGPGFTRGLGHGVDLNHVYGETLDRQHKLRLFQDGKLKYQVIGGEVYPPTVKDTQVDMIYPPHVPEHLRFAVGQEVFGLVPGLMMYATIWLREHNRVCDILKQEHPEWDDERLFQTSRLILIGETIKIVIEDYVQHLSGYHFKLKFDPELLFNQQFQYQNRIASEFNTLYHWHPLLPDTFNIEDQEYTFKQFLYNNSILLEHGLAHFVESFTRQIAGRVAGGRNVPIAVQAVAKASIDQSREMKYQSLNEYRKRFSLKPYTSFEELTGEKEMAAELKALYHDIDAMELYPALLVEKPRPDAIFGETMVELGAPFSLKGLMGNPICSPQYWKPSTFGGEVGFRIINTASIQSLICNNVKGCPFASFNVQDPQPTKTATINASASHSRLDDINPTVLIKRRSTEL
Protocol: In order to evaluate the radiotracer binding specificity to COX-2 in healthy rats, a competition study was performed. Two minutes before the intravenous injection of ^11C-VA426, four animals were pretreated with the COX-2 specific inhibitor celecoxib (Sigma-Aldrich, Italy) (10 mg/kg, i.v.) and four animals with vehicle solution alone (100 μl of DMSO, Sigma-Aldrich). All rats were then injected intravenously with 9.25 ± 2.7 MBq of ^11C-VA426 and sacrificed at the time of maximum uptake (30 minutes p.i.), previously assessed in the kinetic study. Central and peripheral samples were dissected as described above and counted, following the same protocol used for the biodistribution kinetic study. Radioactivity concentration in samples was calculated as %ID/g.

COX-2 [6] = target: T2, COX-2 (Mus musculus, UniProt Q05769); assay: PET kinetic study in healthy mice; assay type: in vivo, CD-1 mice
T2 construct: from tissue; host or cells: organs of living mice (PET in healthy CD-1 mice)
T2 sequence (Q05769 18-604): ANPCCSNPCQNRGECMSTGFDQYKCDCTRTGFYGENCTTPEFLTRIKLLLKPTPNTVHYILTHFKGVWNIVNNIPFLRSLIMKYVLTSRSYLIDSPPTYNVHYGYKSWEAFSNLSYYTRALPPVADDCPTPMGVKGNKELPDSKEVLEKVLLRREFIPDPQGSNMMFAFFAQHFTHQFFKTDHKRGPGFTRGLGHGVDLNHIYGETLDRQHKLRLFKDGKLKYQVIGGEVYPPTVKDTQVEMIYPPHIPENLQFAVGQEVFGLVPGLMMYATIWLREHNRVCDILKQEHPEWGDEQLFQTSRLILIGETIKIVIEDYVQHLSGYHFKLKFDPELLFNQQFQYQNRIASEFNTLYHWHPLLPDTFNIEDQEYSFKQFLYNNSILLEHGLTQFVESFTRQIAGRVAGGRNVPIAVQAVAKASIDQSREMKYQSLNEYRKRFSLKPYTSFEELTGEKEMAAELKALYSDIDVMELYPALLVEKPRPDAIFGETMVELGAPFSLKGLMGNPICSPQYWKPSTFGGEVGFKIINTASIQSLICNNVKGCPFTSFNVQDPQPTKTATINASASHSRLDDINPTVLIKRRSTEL
Protocol: Two CD-1 mice were anaesthetized with a mixture of 4% isoflurane in air for the imaging with the YAP-(S)PET system (ISE Srl). Each mouse was placed in a prone position on the PET scanner bed with the abdomen centred in the field of view (FOV). Five minutes before the intravenous injection of ^11C-VA426, one mouse was pretreated with the COX-2 specific inhibitor celecoxib (10 mg/kg, i.v.) in vehicle (100 μl of DMSO, mouse 1) and the other with vehicle alone (mouse 2). Mouse 1 was then injected intravenously with 1.85 MBq of ^11C-VA426 and mouse 2 with 3.7 MBq, and dynamic PET data were acquired for 30 minutes, according to the following schedule: four scans of 2.5 minutes followed by four of 5 minutes. PET data were acquired in list mode, using the full axial acceptance angle of the scanner (3D mode) and then reconstructed with the expectation maximization (EM) algorithm. All images were calibrated with a dedicated phantom, corrected for the radionuclide half-life decay, and quantified as ID/g.

COX-2 [7] = target: T2, COX-2; assay: Specificity evaluation in peripheral inflammation (i.p. LPS) mouse model; assay type: in vivo; conditions: LPS-treated mice, celecoxib 10 mg/kg i.v., 10 minutes p.i.
Protocol: Specificity evaluation studies of ^11C-VA426 were performed on a murine model of peripheral inflammation, after COX-2 specific inhibitor administration. Six hours before the study, six mice received intraperitoneal injection of lipopolysaccharide (10 mg/Kg), in order to promote peripheral inflammation response. Three of the LPS-treated mice were injected i.v. with 10 mg/kg of celecoxib, five minutes before the ^11C-VA426 injection, to carry out a competition assay for the COX-2 binding sites. All mice were sacrificed at the time of maximum uptake (10 minutes p.i.), previously assessed in healthy mice, after 3.9 ± 1.1 MBq injection of the radiotracer. Peripheral samples were dissected and counted, as well as for biodistribution studies. Radioactivity concentration in samples was calculated as %ID/g.

COX-2 [8] = target: T1, COX-2; assay: Biodistribution kinetic profile in brain inflammation (intrastriatal LPS) rat model; assay type: in vivo, Sprague Dawley rats; conditions: rats
Protocol: In order to trigger nigrostriatal inflammation, eighteen SD rats were anesthetized (zoletil, 25 mg/kg, i.p.) and stereotaxically injected into the right striatum with 3 μL (3.33 μg/μl) of lipopolysaccharide (LPS, Sigma-Aldrich, Italy) and in the contralateral hemisphere with saline (negative control) at the following coordinates: A = +0.5, L = ±3.0, and V = –5.0 mm. One day after LPS injection, the first experimental group (n = 9) was injected through the tail vein with 9.25 ± 2.2 MBq of ^11C-VA426, and three rats per time point (10, 30, and 60 minutes) were euthanized under general anaesthesia, with a mixture of 4% isoflurane in air. Central and peripheral samples were dissected as described above and counted, following the protocol described for the biodistribution kinetic study. Twelve days after LPS injection, the second group of animals (n = 9) underwent the same protocol. Radioactivity concentration in samples was calculated as %ID/g.

[9] = Ex vivo biodistribution kinetic profile in healthy rats; parameters: species or system Sprague Dawley rats
Protocol: Nine SD rats were injected through the tail vein with 9.25 ± 2.5 MBq of ^11C-VA426 and euthanized under general anaesthesia, with a mixture of 4% isoflurane in air, at different time points (10, 30, and 60 minutes) from injection (n = 3 per time). Blood was collected by retro-orbital sampling immediately before the sacrifice. Plasma was separated by centrifugation, and 100 μL of blood and plasma were counted in a γ-counter (LKB Compugamma CS 1282). Peripheral organs (heart, lung, liver, intestine, kidney, testis, and muscle) and brain regions (frontal, right and left cortex, right and left striatum, hippocampus, thalamus, hypothalamus, pons, and cerebellum) were immediately removed and rinsed in cold saline solution. Each sample was then placed in a test tube and weighed, and the radioactivity was measured using a γ-counter (LKB Compugamma CS 1282). An additional aliquot (0.1 mL) of radioactive solution was diluted to 1 : 10, 1 : 100, and 1 : 1000 and used to calculate the standard curve. Radioactivity concentration was calculated as the percentage of injected dose per gram of tissue (%ID/g).

[10] = celecoxib 10 mg/kg i.v. vs vehicle

Compound: COCCc1cc(-c2ccc(S(C)(=O)=O)cc2)n(-c2ccc(F)cc2)c1C [VA426, 1-(4-fluorophenyl)-3-(2-methoxyethyl)-2-methyl-5-(4-(methylsulfonyl)phenyl)-1H-pyrrole]
IC50 (COX-2 [1]): 18 nM
Selectivity Index (IC50 COX-1/IC50 COX-2) (COX-2 [1]): > 5555
toxic effects [2]: without toxic effects

first radioactive metabolite, fraction of total radioactivity in liver ([3]; healthy mice): 39.8%
parent compound, fraction of total activity in liver ([3]; healthy mice): 34.9%
parent compound, fraction of total activity in plasma ([3]; healthy mice): 47.1%
radioactive metabolite (retention time 3 min), fraction of total radioactivity in plasma ([3]; healthy mice): 45.1%
radioactive metabolite (retention time 5 min), fraction of total radioactivity in plasma ([3]; healthy mice): 6.6%
second radioactive metabolite, fraction of total radioactivity in liver ([3]; healthy mice): 21.6%
third radioactive metabolite (11.5 min of retention time), fraction of total radioactivity in liver ([3]; healthy mice): 3.3%
radioactivity due to radioactive metabolites ([3]; plasma and liver): over 50%
time of maximum radioactivity concentration in all brain regions [4]: 10 minutes after tracer injection
time of maximum uptake in liver [4]: 10 minutes after injection
maximum radioactivity concentration in pons ([4]; 10 minutes after injection): 2.69 ± 0.81 %ID/g
maximum uptake in liver ([4]; 10 minutes after injection): 7.72 ± 2.52 %ID/g
change of uptake in intestine after celecoxib pretreatment (COX-2 [5]; [10]): −39%
change of uptake in kidney after celecoxib pretreatment (COX-2 [5]; [10]): −36%
change of uptake in liver after celecoxib pretreatment (COX-2 [5]; [10]): −65%
difference of uptake between vehicle and celecoxib pretreated rats (COX-2 [5]; peripheral tissues and central areas): no significant differences
effect of celecoxib on tracer uptake (%ID/g) in all peripheral regions including plasma (COX-2 [7]): dramatic reduction in tracer uptake
difference of concentration in striatum, lesioned hemisphere vs contralateral PBS-injected control (COX-2 [8]; one day after LPS, 10, 30 and 60 minutes): no significant differences
tracer uptake in contralateral healthy cortex (COX-2 [8]; one day after intrastriatal LPS, 60 min p.i.): 0.087 ± 0.012 %ID/g
difference between LPS-treated and healthy contralateral hemisphere, all regions (COX-2 [8]; twelve days after LPS injection): no differences were found
time of highest radioactivity concentration in brain ([9]; i.v.): 10 min p.i.
radioactivity uptake in liver ([9]; i.v., 30 min p.i., n = 3): 0.81 ± 0.28 %ID/g
Compound: Cc1c(CCO[11CH3])cc(-c2ccc(S(C)(=O)=O)cc2)n1-c1ccc(F)cc1 [^11C-VA426]
PET radioactivity distribution (COX-2 [6]; healthy mice, 0 to 30 minutes after injection): accumulates rapidly and primarily in the liver and kidneys
effect of celecoxib pretreatment on PET radioactivity distribution (COX-2 [6]; healthy mouse, celecoxib 10 mg/kg i.v., 10 and 30 minutes): slightly reduced radioactivity distribution in intestine regions
penetration through the BBB ([9]; brain distribution data): good radioactivity penetration through the BBB
